Experimental data: patent US7750012B2, “Biaryl nitrogen-heterocycle inhibitors of LTA4H for treating inflammation” (deCODE genetics ehf, priority 2005, dated 2010)
Where a name gives a salt, the structure may show the parent alone.

Target: T1, purified recombinant human LTA4 hydrolase (hLTA4H) (Homo sapiens, UniProt P09960)
T1 construct: A human LTA4 hydrolase full-length cDNA clone (NM_000895) was purchased from OriGene Technologies; own knowledge: pDEST17 adds an N-terminal 6xHis; made in house; host or cells: Escherichia coli BL21-AI
T1 sequence (P09960 1-611): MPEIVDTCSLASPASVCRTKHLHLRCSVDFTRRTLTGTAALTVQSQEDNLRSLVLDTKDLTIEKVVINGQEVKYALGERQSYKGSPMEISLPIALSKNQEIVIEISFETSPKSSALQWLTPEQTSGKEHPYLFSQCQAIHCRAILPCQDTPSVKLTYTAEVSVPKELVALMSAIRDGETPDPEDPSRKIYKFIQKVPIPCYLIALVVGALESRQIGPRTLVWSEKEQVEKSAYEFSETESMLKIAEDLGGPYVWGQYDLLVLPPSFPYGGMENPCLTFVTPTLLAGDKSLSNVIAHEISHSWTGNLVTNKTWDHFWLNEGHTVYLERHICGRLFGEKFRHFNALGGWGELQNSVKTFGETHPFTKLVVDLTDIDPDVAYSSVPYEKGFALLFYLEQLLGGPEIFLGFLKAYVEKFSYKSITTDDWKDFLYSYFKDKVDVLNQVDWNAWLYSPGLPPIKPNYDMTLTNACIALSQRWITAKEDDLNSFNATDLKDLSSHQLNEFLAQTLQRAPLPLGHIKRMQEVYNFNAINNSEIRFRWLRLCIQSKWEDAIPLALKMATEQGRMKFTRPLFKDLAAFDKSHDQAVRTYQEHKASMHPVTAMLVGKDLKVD
Experiment: In vitro assay testing inhibitory activity against purified recombinant human LTA4 hydrolase
Format: biochemical
Details: 200 nM recombinant enzyme, 2 μM LTA4, LTB4 measured by LC-MS/MS
Description: (1) In Vitro Assay Testing Inhibitory Activity Against Purified Recombinant Human LTA4 Hydroase:
The gene was amplified by polmerase chain reaction and transferred via pDONR201 into the bacterial expression vector pDEST17 by recombination (both plasmids from Invitrogen, Carlsbad, Calif.). The resulting construct was transformed into Escherichia coli BL21-AI (Invitrogen), and expression was induced by chemical induction with arabinose. The recombinant enzyme was purified by chromatography on a FPLC system (Amersham Biosciences, Uppsala, Sweden) using immobilized metal affinity chromatography (Ni-NTA Superflow, Qiagen, Hilden, Germany) and anion exchange chromatography (MonoQ HR 10/10, Amersham Biosciences).
The compounds of the invention were incubated in a series of dilutions with 200 nM of recombinant enzyme in assay buffer (100 mM Tris-HCl, 100 mM NaCl, 5 mg/ml fatty-acid free BSA, 10% DMSO, pH 8.0) for 10 min at room temperature to allow binding between LTA4 hydrolase and the inhibitors. LTA4 was prepared by alkaline hydrolysis of LTA4 methyl ester (Biomol, Plymouth Meeting, Pa., or Cayman Chemicals, Ann Arbor, Mich.). A solution of 10 μg of the ester was dried under a nitrogen stream and redissolved in 60 μl of a solution of 80% aceton and 20% 0.25 M NaOH.
After incubation for 40 min at room temperature the resulting approximately 500 μM tock of LTA4 was kept at −80° C. for no more than a few days prior to use.
Immediately before the assay, LTA4 was diluted to a concentration of 10 μM in assay buffer (without DMSO) and added to the reaction mixture to a final concentration of 2 μM to initiate the enzyme reaction. […] The samples were then kept at 4° C. over night to complete protein precipitation and centrifuged for 15 min at 1800 g. LTB4 formed was measured by LC-MS/MS using LTB4-d4 as an internal standard and an external LTB4 standard (Biomol) as reference.

SMILES	IC50
O=C(O)CCN1CCN(c2ccc(Oc3ccc(-c4ccsc4)cc3)cc2)CC1 [Example 16, 3-{4[4-(4-Thiophen-3-yl-phenoxy)-phenyl]-piperazin-1-yl}-propionic acid sodium salt]	< 5 µM
COC(=O)CCCN1CCN(c2ccc(Cc3ccccc3)cc2)CC1 [Example 5, 4-[4-(4-Benzyl-phenyl)-piperazin-1-yl]-butyric acid methyl ester]	< 5 µM
c1ccc(Cc2ccc(N3CCNCC3)cc2)cc1 [Example 4, 1-(4-Benzyl-phenyl)-piperazine hydrochloride]	< 5 µM
CC(=O)N1CCN(c2ccc(Oc3ccccc3)cc2)CC1 [Example 21, 1-[4-(4-Phenoxy-phenyl)-piperazin-1-yl]-ethanone]	< 5 µM
O=C(O)CCCN1CCN(c2ccc(Cc3ccccc3)cc2)CC1 [Example 6, 4-[4-(4-Benzyl-phenyl)-piperazin-1-yl]-butyric acid sodium salt]	< 5 µM
Cc1ccc(Oc2ccc(N3CCNCC3)cc2)cc1 [Example 18, 1-(4-p-Tolyloxy-phenyl]-piperazine]	< 5 µM
O=C(O)CCCN1CCN(c2ccc(Nc3ccccc3)cc2)CC1 [Example 3, 4-[4-(4-phenylamino-phenyl)-piperazin-1-yl]-butyric acid sodium salt]	5 to 20 µM
Ic1ccc(Oc2ccc(N3CCNCC3)cc2)cc1 [Example 14, 1-[4-(4-Iodo-phenoxy)-phenyl]-piperazine hydrochloride]	< 5 µM
O=C(O)CCN1CCN(c2ccc(Cc3ccccc3)cc2)CC1 [Example 7, 3-[4-(4-Benzyl-phenyl)-piperazin-1-yl]-propionic acid sodium salt]	< 5 µM
c1cc(-c2ccc(Oc3ccc(N4CCNCC4)cc3)cc2)cs1 [Example 23, 1-[4-(4-Thiophen-3yl-phenoxy)-phenyl]-piperazine hydrochloride]	< 5 µM
Ic1ccc(Oc2ccc(N3CCOCC3)cc2)cc1 [Example 24, 4-[4-(4-Iodo-phenoxy)-phenyl]-morpholine]	< 5 µM
COc1ccc(Oc2ccc(N3CCNCC3)cc2)cc1 [Example 17, 1-[4-(4-Methoxy-phenoxy)-phenyl]-piperazine]	5 to 20 µM
FC(F)(F)c1ccc(Oc2ccc(N3CCNCC3)cc2)cc1 [Example 20, 1-[4-(4-Trifluoromethyl-phenoxy)-phenyl]-piperazine]	< 5 µM
Clc1ccc(-c2ccc(Oc3ccc(N4CCNCC4)cc3)cc2)s1 [Example 26, hydrochloride]	5 to 20 µM
O=C(O)CCCN1CCN(c2ccc(Oc3ccc(I)cc3)cc2)CC1 [Example 15, 4-{4-[4-(4-Iodo-phenoxy)-phenyl]-piperazin-1-yl]-butyric acid sodium salt]	< 5 µM
NC1CCN(c2ccc(Oc3ccccc3)cc2)CC1 [Example 12, 1-(4-Phenoxy-phenyl)-piperidin-4-ylamine hydrochloride]	5 to 20 µM
c1cc(-c2ccc(Oc3ccc(N4CCOCC4)cc3)cc2)cs1 [Example 25, 4-[4-(4-Thiophen-3-yl-phenoxy)-phenyl]-morpholine]	< 5 µM

System: ionophore-induced LTB4 production
Experiment: not given
Details: oral administration; cited from earlier work

SMILES	inhibition of ionophore-induced LTB4 production in mouse blood ex vivo
CN(CCCOc1ccc(Cc2ccccc2)cc1)CCC(=O)O.Cl [SC57461]	inhibition of ionophore-induced LTB4 production

System: ionophore-induced LTB4 production
Experiment: not given
Details: oral administration; cited from earlier work
Remark: another data set of the same source

SMILES	inhibition of ionophore-induced LTB4 production in rat peritoneum in vivo
CN(CCCOc1ccc(Cc2ccccc2)cc1)CCC(=O)O.Cl [SC57461]	inhibition of ionophore-induced LTB4 production

System: colitis symptoms
Experiment: not given
Details: eight weeks of treatment, spontaneous colitis; cited from earlier work

SMILES	colitis symptoms in a primate model
CN(CCCOc1ccc(Cc2ccccc2)cc1)CCC(=O)O.Cl [SC57461]	significantly improved colitis symptoms
